From PubChem BioAssay (NCI)
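Briefly, cells in 96-well plates were exposed to five compound concentrations for 48 h, and endpoints were estimated by linear interpolation. TGI: total growth inhibition.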

Key:
Test in all cases: NCI tumour cell line growth inhibition, 48 h
786-0 renal = tested on: 786-0 renal
A498 renal = tested on: A498 renal
A549 NSCLC = tested on: A549 NSCLC
ACHN renal = tested on: ACHN renal
CAKI-1 renal = tested on: CAKI-1 renal
CCRF-CEM leukemia = tested on: CCRF-CEM leukemia
COLO 205 colon = tested on: COLO 205 colon
DMS 114 small cell lung = tested on: DMS 114 small cell lung
DMS 273 small cell lung = tested on: DMS 273 small cell lung
EKVX NSCLC = tested on: EKVX NSCLC
HCC-2998 colon = tested on: HCC-2998 colon
HCT-116 colon = tested on: HCT-116 colon
HCT-15 colon = tested on: HCT-15 colon
HOP-18 NSCLC = tested on: HOP-18 NSCLC
HOP-62 NSCLC = tested on: HOP-62 NSCLC
HT29 colon = tested on: HT29 colon
IGROV1 ovarian = tested on: IGROV1 ovarian
K-562 leukemia = tested on: K-562 leukemia
KM12 colon = tested on: KM12 colon
KM20L2 colon = tested on: KM20L2 colon
LOX IMVI melanoma = tested on: LOX IMVI melanoma
LXFL 529 NSCLC = tested on: LXFL 529 NSCLC
M14 melanoma = tested on: M14 melanoma
MALME-3M melanoma = tested on: MALME-3M melanoma
MOLT-4 leukemia = tested on: MOLT-4 leukemia
NCI-H226 lung = tested on: NCI-H226 lung
NCI-H23 lung = tested on: NCI-H23 lung
NCI-H460 lung = tested on: NCI-H460 lung
NCI-H522 lung = tested on: NCI-H522 lung
OVCAR-3 ovarian = tested on: OVCAR-3 ovarian
OVCAR-4 ovarian = tested on: OVCAR-4 ovarian
OVCAR-5 ovarian = tested on: OVCAR-5 ovarian
OVCAR-8 ovarian = tested on: OVCAR-8 ovarian
RPMI-8226 leukemia = tested on: RPMI-8226 leukemia
RXF 393 renal = tested on: RXF 393 renal
RXF-631 renal = tested on: RXF-631 renal
SF-268 CNS = tested on: SF-268 CNS
SF-295 CNS = tested on: SF-295 CNS
SF-539 CNS = tested on: SF-539 CNS
SK-MEL-2 melanoma = tested on: SK-MEL-2 melanoma
SK-MEL-5 melanoma = tested on: SK-MEL-5 melanoma
SK-OV-3 ovarian = tested on: SK-OV-3 ovarian
SN12C renal = tested on: SN12C renal
SNB-75 CNS = tested on: SNB-75 CNS
SNB-78 CNS = tested on: SNB-78 CNS
SW-620 colon = tested on: SW-620 colon
TK-10 renal = tested on: TK-10 renal
U251 CNS = tested on: U251 CNS
UACC-257 melanoma = tested on: UACC-257 melanoma
UACC-62 melanoma = tested on: UACC-62 melanoma
UO-31 renal = tested on: UO-31 renal
XF 498 CNS = tested on: XF 498 CNS
DLD-1 colon = tested on: DLD-1 colon
HL-60(TB) leukemia = tested on: HL-60(TB) leukemia
HOP-92 NSCLC = tested on: HOP-92 NSCLC
M19-MEL melanoma = tested on: M19-MEL melanoma
SK-MEL-28 melanoma = tested on: SK-MEL-28 melanoma
SNB-19 CNS = tested on: SNB-19 CNS
SR leukemia = tested on: SR leukemia

Cn1c(=O)nc2n(-c3cccc(Cl)c3)c3ccccc3nc-2c1=O
TGI (786-0 renal): > 100 µM
TGI (A498 renal): 79.3 µM
TGI (A549 NSCLC): 33 µM
TGI (ACHN renal): 29.8 µM
TGI (CAKI-1 renal): 70 µM
TGI (CCRF-CEM leukemia): 50.5 µM
TGI (COLO 205 colon): 16 µM
TGI (DMS 114 small cell lung): 20 µM
TGI (DMS 273 small cell lung): 25.1 µM
TGI (EKVX NSCLC): 26.9 µM
TGI (HCC-2998 colon): 25.6 µM
TGI (HCT-116 colon): 30.8 µM
TGI (HCT-15 colon): 30.2 µM
TGI (HOP-18 NSCLC): 85.5 µM
TGI (HOP-62 NSCLC): 90.9 µM
TGI (HT29 colon): 21.4 µM
TGI (IGROV1 ovarian): 54 µM
TGI (K-562 leukemia): 38.2 µM
TGI (KM12 colon): 44.9 µM
TGI (KM20L2 colon): 23.8 µM
TGI (LOX IMVI melanoma): 59.8 µM
TGI (LXFL 529 NSCLC): 72.8 µM
TGI (M14 melanoma): 24 µM
TGI (MALME-3M melanoma): 12.3 µM
TGI (MOLT-4 leukemia): 42 µM
TGI (NCI-H226 lung): 74.9 µM
TGI (NCI-H23 lung): 21.9 µM
TGI (NCI-H460 lung): 26.2 µM
TGI (NCI-H522 lung): 30.7 µM
TGI (OVCAR-3 ovarian): 6.61 µM
TGI (OVCAR-4 ovarian): 24.6 µM
TGI (OVCAR-5 ovarian): 40.8 µM
TGI (OVCAR-8 ovarian): 78.1 µM
TGI (RPMI-8226 leukemia): 51 µM
TGI (RXF 393 renal): 83.3 µM
TGI (RXF-631 renal): 40.8 µM
TGI (SF-268 CNS): > 100 µM
TGI (SF-295 CNS): 62.1 µM
TGI (SF-539 CNS): 33 µM
TGI (SK-MEL-2 melanoma): 40.7 µM
TGI (SK-MEL-5 melanoma): 25.2 µM
TGI (SK-OV-3 ovarian): > 100 µM
TGI (SN12C renal): 28.5 µM
TGI (SNB-75 CNS): 51.8 µM
TGI (SNB-78 CNS): 57.7 µM
TGI (SW-620 colon): 25 µM
TGI (TK-10 renal): 73.6 µM
TGI (U251 CNS): 37.7 µM
TGI (UACC-257 melanoma): 23.8 µM
TGI (UACC-62 melanoma): 6.36 µM
TGI (UO-31 renal): > 100 µM
TGI (XF 498 CNS): 35.3 µM

C[C@]12CCC(=O)C[C@H]1CCC(O)[C@@H]2Br (some centres not stated)
TGI (786-0 renal): > 100 µM
TGI (A498 renal): > 100 µM
TGI (A549 NSCLC): > 100 µM
TGI (ACHN renal): > 100 µM
TGI (CAKI-1 renal): > 100 µM
TGI (CCRF-CEM leukemia): > 100 µM
TGI (COLO 205 colon): > 100 µM
TGI (DLD-1 colon): > 100 µM
TGI (DMS 114 small cell lung): > 100 µM
TGI (DMS 273 small cell lung): > 100 µM
TGI (HCC-2998 colon): > 100 µM
TGI (HCT-116 colon): > 100 µM
TGI (HCT-15 colon): > 100 µM
TGI (HL-60(TB) leukemia): > 100 µM
TGI (HOP-18 NSCLC): > 100 µM
TGI (HOP-62 NSCLC): > 100 µM
TGI (HOP-92 NSCLC): > 100 µM
TGI (HT29 colon): > 100 µM
TGI (IGROV1 ovarian): > 100 µM
TGI (K-562 leukemia): > 100 µM
TGI (KM12 colon): > 100 µM
TGI (KM20L2 colon): > 100 µM
TGI (LOX IMVI melanoma): > 100 µM
TGI (LXFL 529 NSCLC): > 100 µM
TGI (M14 melanoma): > 100 µM
TGI (M19-MEL melanoma): > 100 µM
TGI (MALME-3M melanoma): > 100 µM
TGI (MOLT-4 leukemia): > 100 µM
TGI (NCI-H226 lung): > 100 µM
TGI (NCI-H23 lung): > 100 µM
TGI (NCI-H460 lung): > 100 µM
TGI (NCI-H522 lung): > 100 µM
TGI (OVCAR-3 ovarian): > 100 µM
TGI (OVCAR-4 ovarian): > 100 µM
TGI (OVCAR-5 ovarian): > 100 µM
TGI (OVCAR-8 ovarian): > 100 µM
TGI (RPMI-8226 leukemia): > 100 µM
TGI (RXF-631 renal): > 100 µM
TGI (SF-268 CNS): > 100 µM
TGI (SF-295 CNS): > 100 µM
TGI (SF-539 CNS): > 100 µM
TGI (SK-MEL-2 melanoma): > 100 µM
TGI (SK-MEL-28 melanoma): > 100 µM
TGI (SK-MEL-5 melanoma): > 100 µM
TGI (SK-OV-3 ovarian): > 100 µM
TGI (SN12C renal): > 100 µM
TGI (SNB-19 CNS): > 100 µM
TGI (SNB-75 CNS): > 100 µM
TGI (SR leukemia): > 100 µM
TGI (SW-620 colon): > 100 µM
TGI (TK-10 renal): > 100 µM
TGI (U251 CNS): > 100 µM
TGI (UACC-257 melanoma): > 100 µM
TGI (UACC-62 melanoma): > 100 µM
TGI (UO-31 renal): > 100 µM
TGI (XF 498 CNS): > 100 µM

C=CCN(N=O)C(=O)NCCCC(NC(C)=O)C(=O)NCc1ccccc1 (configuration not stated)
TGI (786-0 renal): > 100 µM
TGI (A498 renal): > 100 µM
TGI (A549 NSCLC): > 100 µM
TGI (ACHN renal): > 100 µM
TGI (CAKI-1 renal): > 100 µM
TGI (CCRF-CEM leukemia): > 100 µM
TGI (COLO 205 colon): > 100 µM
TGI (DMS 114 small cell lung): > 100 µM
TGI (DMS 273 small cell lung): > 100 µM
TGI (EKVX NSCLC): > 100 µM
TGI (HCT-15 colon): > 100 µM
TGI (HL-60(TB) leukemia): > 100 µM
TGI (HOP-18 NSCLC): > 100 µM
TGI (HOP-62 NSCLC): > 100 µM
TGI (HOP-92 NSCLC): > 100 µM
TGI (HT29 colon): > 100 µM
TGI (IGROV1 ovarian): > 100 µM
TGI (K-562 leukemia): > 100 µM
TGI (KM12 colon): > 100 µM
TGI (KM20L2 colon): > 100 µM
TGI (LOX IMVI melanoma): > 100 µM
TGI (LXFL 529 NSCLC): > 100 µM
TGI (M14 melanoma): > 100 µM
TGI (M19-MEL melanoma): > 100 µM
TGI (MALME-3M melanoma): > 100 µM
TGI (MOLT-4 leukemia): > 100 µM
TGI (NCI-H226 lung): > 100 µM
TGI (NCI-H23 lung): > 100 µM
TGI (NCI-H460 lung): > 100 µM
TGI (NCI-H522 lung): > 100 µM
TGI (OVCAR-3 ovarian): > 100 µM
TGI (OVCAR-4 ovarian): > 100 µM
TGI (OVCAR-5 ovarian): > 100 µM
TGI (OVCAR-8 ovarian): > 100 µM
TGI (RPMI-8226 leukemia): > 100 µM
TGI (RXF 393 renal): > 100 µM
TGI (RXF-631 renal): > 100 µM
TGI (SF-268 CNS): > 100 µM
TGI (SF-295 CNS): > 100 µM
TGI (SF-539 CNS): > 100 µM
TGI (SK-MEL-2 melanoma): > 100 µM
TGI (SK-MEL-28 melanoma): > 100 µM
TGI (SK-MEL-5 melanoma): > 100 µM
TGI (SK-OV-3 ovarian): > 100 µM
TGI (SN12C renal): > 100 µM
TGI (SNB-19 CNS): > 100 µM
TGI (SNB-75 CNS): > 100 µM
TGI (SW-620 colon): > 100 µM
TGI (TK-10 renal): > 100 µM
TGI (U251 CNS): > 100 µM
TGI (UACC-257 melanoma): > 100 µM
TGI (UACC-62 melanoma): > 100 µM
TGI (UO-31 renal): > 100 µM
TGI (XF 498 CNS): > 100 µM
